How the values were obtained:
[1] = in vivo; cited from earlier work
[2] = metformin on its own, in the diabetic; cited from earlier work
[3] = Particle size distribution measurement by laser diffraction; assay type: physicochemical; settings: milled active substance
Source text: The value X90 refers to the 90% value of the volume distribution measured using a laser diffractometer. In other words, for the purposes of the present invention, the X90 value denotes the particle size below which 90% of the quantity of particles is found based on the volume distribution. Analogously the value X50 refers to the 50% value (median) of the volume distribution measured using a laser diffractometer. In other words, for the purposes of the present invention, the X50 value denotes the particle size below which 50% of the quantity of particles is found based on the volume distribution. Analogously the value X10 refers to the 10% value of the volume distribution measured using a laser diffractometer. In other words, for the purposes of the present invention, the X10 value denotes the particle size below which 10% of the quantity of particles is found based on the volume distribution.
Preferably all X90, X50, X10 values hereinbefore and hereinafter are by volume and determined by laser-diffraction method, in particular low angle laser light scattering, i.e. Fraunhofer diffraction. A preferred test is described in the experimental section. The laser diffraction method is sensitive to the volume of a particle and provides a volume-average particle size, which is equivalent to the weight-average particle size if the density is constant. The skilled artesian knows that the results of the particle size distribution determination by one technique can be correlated with that from another technique, for example on an empirical basis by routine experimentation. Alternatively the particle size distribution in the pharmaceutical composition or dosage form can be determined by microscopy, in particular electron microscopy or scanning electron microscopy.
Examples of typical particle size distribution values X90, X50 and X10 for the preferred active pharmaceutical ingredient according to the invention are shown in the table below.
3. Particle Size Distribution Measurement by Laser Diffraction
Particle size distribution measurement is performed for example via light scattering or laser diffraction technique. To determine the particle size the powder is fed into a laser diffraction spectrometer for example by means of a dispersing unit. The test method is described below in detail:
Equipment: Laser Diffraction Spectrometer Sympatec HELOS Particle Sizer.
Lens: R31 (0.5/0.9 μm-175 μm) Sample Dispersing Unit: Dry disperser RODOS/M
Feed Velocity: 60.00 mm/s Primary pressure: 2.00 bar Injector depression: maximize (mbar)2 Reference Measurement: 10 seconds Cycle Time: 100 msec Trigger Conditions: Start 0.0 seconds after optical concentration ≥1% valid always Stop after 5.0 seconds optical concentration ≤1% or after 30 seconds real time Optical Concentration: Approximately range 3-12%
Number of measurements: 2 (duplicate)
The instrument is set up according to the manufacturer's recommendation and using the manufacturer provided software. The sample container is thoroughly mixed and tumbled prior to removing a portion of the sample to ensure that a representative sample is tested. Duplicate samples are prepared by using a spatula to transfer approximately 100 mg of a sample into the ASPIROS glass vials and cap the vials. The capped cials are placed into the feeder.

[4] = listed as Active substance Batch 1
[5] = listed as Active substance Batch 2

## CC#CCn1c(N2CCC[C@@H](N)C2)nc2c1c(=O)n(Cc1nc(C)c3ccccc3n1)c(=O)n2C [linagliptin]
[1]
  route of excretion: primarily excreted by bile and the gut

## CN(C)C(=N)N=C(N)N [metformin]
[2]
  average improvement in the HbA1c value: 1.0-1.5%

## 1-chloro-4-(β-D-glucopyranos-1-yl)-2-[4-((S)-tetrahydrofuran-3-yloxy)-benzyl]-benzene [compound (I.9)]
[3]; [4]
  X10 (10% value of the volume distribution, particle size): 1.8 μm
  X50 (50% value, median, of the volume distribution, particle size): 18.9 μm
  X90 (90% value of the volume distribution, particle size): 45.3 μm
[3]; [5]
  X10 (10% value of the volume distribution, particle size): 1.7 μm
  X50 (50% value, median, of the volume distribution, particle size): 12.1 μm
  X90 (90% value of the volume distribution, particle size): 25.9 μm

Source: US20220096505A1, “PHARMACEUTICAL COMPOSITION, METHODS FOR TREATING AND USES THEREOF” (Boehringer Ingelheim International GmbH, priority 2011, published 2022)
